Activity calls are given as the source filed them.
What was measured:
[1] = molecular target: T1, Heat shock factor protein 1 (Mus musculus, UniProt P38532); test: enhancement of HSF1-driven luciferase signal – cell-based, NIH3T3, luminescence, dose retest, confirmation (AID 435004); assay type: functional;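 further: stress induced by proteasome inhibitor MG132 added 30 min after compound; luciferase reporter driven by HSF1 response element in NIH3T3 cells; actives raise luminescence as potentiators of the MG132 stress response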
T1 sequence (P38532 whole entry): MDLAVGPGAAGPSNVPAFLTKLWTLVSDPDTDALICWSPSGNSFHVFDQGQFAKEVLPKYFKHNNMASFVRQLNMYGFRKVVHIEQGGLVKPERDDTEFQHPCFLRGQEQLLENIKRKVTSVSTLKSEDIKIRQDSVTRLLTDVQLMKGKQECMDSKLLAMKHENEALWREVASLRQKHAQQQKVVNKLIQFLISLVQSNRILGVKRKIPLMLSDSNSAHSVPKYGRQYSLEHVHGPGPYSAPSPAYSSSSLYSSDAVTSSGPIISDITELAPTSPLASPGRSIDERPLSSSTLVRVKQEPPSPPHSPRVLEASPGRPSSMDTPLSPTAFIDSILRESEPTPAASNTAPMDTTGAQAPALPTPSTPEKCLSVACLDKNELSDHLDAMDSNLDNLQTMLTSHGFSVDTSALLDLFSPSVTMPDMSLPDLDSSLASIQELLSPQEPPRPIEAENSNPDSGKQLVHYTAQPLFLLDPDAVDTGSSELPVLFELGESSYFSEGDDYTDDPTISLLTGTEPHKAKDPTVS

[2] = luciferase reporter signal suppression in cells – H4 neuroglioma cells, luminescence, dose response (AID 1990); assay type: functional, cell-based
[3] = alpha-synuclein stem-loop luciferase translation blockers – H4 neuroglioma cells, luminescence, confirmation (AID 1988); assay type: functional, cell-based
[4] = Luminescence Cell-Based Dose Response HTS to Identify Inhibitors of 5'UTR Stem-Loop Driven Prion Protein mRNA Translation in H4 Neuroglioblastoma Cells. [Related pubchem assays: 1827 (Project Summary), 1813 (Primary HTS)]; assay type: functional
Large T antigen = Large T antigen (Simian virus 40, UniProt P03070); assay type: functional, Betapolyomavirus macacae;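 further: Confirmatory-stage PubChem screen for compounds that inhibit SV40 T antigen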
[5] = microbe, parasite or virus in culture; assay type: functional; conditions: Mycobacterium tuberculosis
[6] = NIH3T3 cell viability loss – ATP luminescence, mouse fibroblasts, counter-screen, dose response (AID 2010); assay type: functional, cell-based;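 further: cells exposed to compound for about 90 hours before reading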
INS1 = test: INS-1E survival protection against cytokine death – cell-based, luminescence, retest, dose response (AID 449756); assay type: functional; conditions: Rattus norvegicus;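 further: cell death triggered by IL-1 beta plus TNF-alpha plus IFN-gamma mixture; protective hits raise ATP signal compared with cytokine alone wells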
Protein RecA = molecular target: T2, Protein RecA (Mycobacterium tuberculosis, UniProt P9WHJ3); test: Fluorescence Cell-Free Homogeneous Dose Retest to Identify Inhibitors of RecA-Intein Splicing Activity. [Related pubchem assays (depositor defined):AID2097, AID2223, AID489010, AID492950]; assay type: functional
T2 sequence (P9WHJ3 whole entry): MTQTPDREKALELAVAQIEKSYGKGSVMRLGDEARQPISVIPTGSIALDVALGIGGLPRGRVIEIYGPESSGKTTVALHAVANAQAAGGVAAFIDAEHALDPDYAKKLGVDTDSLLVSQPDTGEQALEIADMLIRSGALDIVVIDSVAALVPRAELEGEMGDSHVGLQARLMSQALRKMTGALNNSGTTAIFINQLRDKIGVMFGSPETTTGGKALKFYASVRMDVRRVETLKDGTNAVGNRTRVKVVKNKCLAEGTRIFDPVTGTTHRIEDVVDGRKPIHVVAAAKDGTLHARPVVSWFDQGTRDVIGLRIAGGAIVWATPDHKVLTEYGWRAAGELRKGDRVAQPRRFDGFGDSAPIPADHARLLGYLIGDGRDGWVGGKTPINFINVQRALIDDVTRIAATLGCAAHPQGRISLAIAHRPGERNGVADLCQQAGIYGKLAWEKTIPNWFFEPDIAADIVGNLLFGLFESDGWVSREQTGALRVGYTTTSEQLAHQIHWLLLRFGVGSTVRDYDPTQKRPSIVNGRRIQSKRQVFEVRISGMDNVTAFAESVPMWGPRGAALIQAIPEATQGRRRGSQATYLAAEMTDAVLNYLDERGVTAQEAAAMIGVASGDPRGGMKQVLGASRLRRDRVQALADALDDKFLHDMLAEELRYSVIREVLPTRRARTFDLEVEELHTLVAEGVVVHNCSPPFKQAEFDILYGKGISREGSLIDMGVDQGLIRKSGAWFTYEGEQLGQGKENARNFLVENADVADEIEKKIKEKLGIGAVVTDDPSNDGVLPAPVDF

[7] = Trypanosoma cruzi growth suppression in host cells – NIH3T3 host cells, beta-gal luminescence, confirmation (AID 2044); assay type: functional, cell-based;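 further: intracellular parasites grown in NIH/3T3 mouse fibroblasts as host cells; luminescent beta-galactosidase reporter signal from transgenic T. cruzi replicating inside host cells; inhibitors lower the luminescence signal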
[8] = molecular target: T3, Replicative DNA helicase DnaB (Mycobacterium tuberculosis, UniProt P9WMR3); test: DnaB intein splicing inhibitors, dose response, biochemical, cell-free fluorescence (AID 449749); assay type: functional
T3 sequence (P9WMR3 whole entry): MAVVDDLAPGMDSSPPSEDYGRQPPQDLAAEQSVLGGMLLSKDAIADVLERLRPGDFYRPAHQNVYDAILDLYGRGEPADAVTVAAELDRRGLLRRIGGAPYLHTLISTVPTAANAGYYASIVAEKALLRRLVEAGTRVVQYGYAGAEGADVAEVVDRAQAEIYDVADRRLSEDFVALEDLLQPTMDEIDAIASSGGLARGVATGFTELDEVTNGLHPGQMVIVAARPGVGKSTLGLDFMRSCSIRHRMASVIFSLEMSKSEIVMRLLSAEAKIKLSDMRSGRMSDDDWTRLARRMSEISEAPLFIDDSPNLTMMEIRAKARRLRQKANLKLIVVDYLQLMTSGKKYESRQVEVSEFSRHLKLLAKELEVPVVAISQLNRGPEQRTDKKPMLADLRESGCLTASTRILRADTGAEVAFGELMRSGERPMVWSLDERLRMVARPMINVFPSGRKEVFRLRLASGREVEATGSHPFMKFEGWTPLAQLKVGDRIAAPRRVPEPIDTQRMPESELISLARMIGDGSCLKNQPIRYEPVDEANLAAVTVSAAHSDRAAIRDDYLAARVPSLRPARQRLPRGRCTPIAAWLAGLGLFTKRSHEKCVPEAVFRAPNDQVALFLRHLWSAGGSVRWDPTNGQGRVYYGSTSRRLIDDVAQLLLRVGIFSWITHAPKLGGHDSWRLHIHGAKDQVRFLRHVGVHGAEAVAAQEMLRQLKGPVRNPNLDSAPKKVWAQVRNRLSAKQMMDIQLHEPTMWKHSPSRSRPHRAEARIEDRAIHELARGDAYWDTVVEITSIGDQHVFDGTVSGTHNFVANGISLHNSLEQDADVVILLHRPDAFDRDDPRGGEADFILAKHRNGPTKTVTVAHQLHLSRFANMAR

[9] = Luminescence Cell-Based Dose Retest to Confirm Inhibitors of Cancer Stem Cells. [Related pubchem assays (depositor defined):AID2717, AID2721]; assay type: functional; conditions: Homo sapiens
[10] = viability of uninfected HEp-2 cells – cell-based, HTS, cytotoxicity control for RSV inhibitor project, dose response (AID 2410); assay type: functional; conditions: human respiratory syncytial virus
Paired box protein Pax-8 = Paired box protein Pax-8 (Homo sapiens, UniProt Q06710); test: PAX8 transcriptional activity inhibition in RMG-I – RMG-I cells, luciferase, cherry-pick, dose response (AID 687027); assay type: functional, cell-based;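 further: luciferase reporter driven by Pax8 target thyroperoxidase promoter measured by SteadyGlo luminescence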
Paired box protein Pax-8, sequence (Q06710 whole entry): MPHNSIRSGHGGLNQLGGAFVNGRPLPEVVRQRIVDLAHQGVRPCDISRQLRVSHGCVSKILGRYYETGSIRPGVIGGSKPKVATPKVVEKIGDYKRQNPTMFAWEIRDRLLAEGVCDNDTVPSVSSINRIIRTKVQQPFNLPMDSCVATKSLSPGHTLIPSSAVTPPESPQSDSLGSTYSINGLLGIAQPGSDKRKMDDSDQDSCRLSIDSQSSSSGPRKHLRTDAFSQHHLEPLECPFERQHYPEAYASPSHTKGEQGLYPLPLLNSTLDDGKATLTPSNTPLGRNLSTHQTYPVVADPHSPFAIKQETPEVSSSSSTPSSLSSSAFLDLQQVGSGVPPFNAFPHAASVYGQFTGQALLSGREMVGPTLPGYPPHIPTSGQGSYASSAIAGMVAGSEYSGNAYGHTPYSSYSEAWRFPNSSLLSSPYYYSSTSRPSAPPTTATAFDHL

Large T antigen, sequence (P03070 whole entry): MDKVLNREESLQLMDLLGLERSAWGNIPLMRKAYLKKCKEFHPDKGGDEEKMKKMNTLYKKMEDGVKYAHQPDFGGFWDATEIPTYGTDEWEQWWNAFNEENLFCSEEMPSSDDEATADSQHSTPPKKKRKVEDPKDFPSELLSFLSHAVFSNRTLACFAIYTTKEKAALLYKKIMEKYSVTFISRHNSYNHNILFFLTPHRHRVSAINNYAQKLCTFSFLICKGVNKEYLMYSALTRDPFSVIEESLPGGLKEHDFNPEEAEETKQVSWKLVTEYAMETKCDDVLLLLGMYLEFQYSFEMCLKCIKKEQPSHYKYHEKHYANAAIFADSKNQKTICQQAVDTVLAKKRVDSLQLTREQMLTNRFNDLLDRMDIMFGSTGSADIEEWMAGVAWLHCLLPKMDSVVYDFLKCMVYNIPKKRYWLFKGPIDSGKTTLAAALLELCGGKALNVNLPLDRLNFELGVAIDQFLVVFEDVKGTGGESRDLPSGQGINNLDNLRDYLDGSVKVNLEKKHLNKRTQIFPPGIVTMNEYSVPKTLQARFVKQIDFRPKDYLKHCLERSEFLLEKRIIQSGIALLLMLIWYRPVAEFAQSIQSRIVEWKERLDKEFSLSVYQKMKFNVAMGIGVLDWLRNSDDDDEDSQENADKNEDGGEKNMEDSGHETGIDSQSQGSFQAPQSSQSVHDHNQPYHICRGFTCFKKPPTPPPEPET

| Compound | EC50 [1] | EC50 [2] | EC50 [3] | EC50 [4] | also measured |
| --- | --- | --- | --- | --- | --- |
| COc1ccccc1NC(=O)C1=C(C)N=C2CC(c3ccc(OC)c(OC)c3)CC(O)=C2C1c1coc2ccccc2c1=O (centres undefined) | 34.5 µM (active) | – | – | – | – |
| CC1(c2ccccc2)CC(C)(C)n2c(O)c(C3=NC(=S)NC3=O)c3cccc1c32 (centres undefined) | – | 20.5 µM (active) | 22.8 µM (active) | 17.6 µM (active) | – |
| Cc1cc(Oc2ccc(=O)n(C)n2)nc(SCc2ccccc2)n1 | – | > 120 µM (not active) | 22.1 µM (active) | 16.6 µM (active) | – |
| CC(=O)Nc1nnc(SCC(=O)c2ccc(F)cc2)s1 | 67.4 µM (active) | – | – | – | – |
| Nc1cc(C(=O)O)ccc1Nc1ccccc1 | – | – | – | – | IC50 (Large T antigen): 12.5 µM (active) |
| COCCn1c(=O)[nH]c2cc(C(=O)N3CCN(c4cccc(Cl)c4)CC3)ccc2c1=O | > 260 µM (inactive) | – | – | – | – |
| COc1ccc(NC(=O)c2sc(S)nc2N)cc1 | – | – | – | – | IC50 (Large T antigen): 7.51 µM (active) |
| Cc1sc2nc(CSc3cccc(C(F)(F)F)c3)nc(O)c2c1C | > 260 µM (inactive) | – | – | – | – |
| Oc1cc(CCl)nc(Cc2c(Cl)cccc2Cl)n1 | – | – | – | – | CC50 [5]: 21.7 µM (active) |
| Cc1cc(Cl)ccc1OCC(=O)Nc1ccccc1N1CCOCC1 | – | 18.2 µM (active) | > 120 µM (not active) | > 120 µM (not active) | – |
| COP(=O)(OC)c1nc(-c2cccc3ccccc23)oc1NCc1ccccc1 | > 260 µM (inactive) | – | – | – | – |
| CCCCCn1c(Sc2ccccc2)nc2c1c(=O)[nH]c(=O)n2C | – | 5.33 µM (active) | 16.9 µM (active) | 20.1 µM (active) | – |
| COCCCNC(=O)CCn1c(=O)c2ccccc2n(CC(=O)Nc2cc(Cl)ccc2C)c1=O | > 260 µM (inactive) | – | – | – | – |
| CCn1c(-c2ccccc2)c(C(=O)CCl)c2ccccc21 | 7.71 µM (active) | – | – | – | EC50 [6]: 4.12 µM (active); AC50 (INS1): 7.82 µM (active); EC50 (Protein RecA): 1.05 µM (active); EC50 [7]: 1.42 µM (active); AC50 [8]: 3.27 µM (active) |
| CC(=O)c1ccc(-c2ccccc2[C@H]2[C@H]3C=CC[C@@H](C)[C@@H]3C(=O)N2Cc2ccccc2)cc1 | – | 30 µM (active) | 22.4 µM (active) | > 120 µM (not active) | – |
| O=C(CN1C(=O)/C(=C\c2ccco2)SC1=S)Nc1ccc(O)cc1C(=O)O | – | – | – | – | IC50 (Large T antigen): 74.2 µM (active) |
| COc1ccc(-c2cn(Cc3ccc(C(=O)NCc4ccc(C)cc4)cc3)c(C(C)N)n2)cc1 (centres undefined) | – | – | – | – | CC50 [5]: > 40 µM (active) |
| Fc1cc(F)cc(Nc2nc(Cl)nc(NC3CCCC3)n2)c1 | – | – | – | – | CC50 [5]: > 40 µM (active) |
| Cc1cc2oc3c(c(=O)c2cc1C)C(c1ccc(C(C)C)cc1)N(CCCN1CCOCC1)C3=O (centres undefined) | > 260 µM (inactive) | – | – | – | – |
| Cc1cc2oc(=O)c(CC(=O)NCCCN(C)C)c(C)c2c2occ(C(C)(C)C)c12 | – | > 120 µM (not active) | 8.72 µM (active) | 12.6 µM (active) | AC50 [9]: 1.22 µM (active); EC50 [6]: 4.86 µM (active); EC50 [7]: 2.29 µM (active) |
| COc1ccc(C2=Nn3c(nnc3-c3ccccn3)SC2)cc1OC | – | 20.8 µM (active) | 17.2 µM (active) | > 120 µM (not active) | – |
| FC(F)(F)c1cccc(OCc2nnc3n2CCC3)c1 | – | > 120 µM (not active) | > 120 µM (not active) | > 120 µM (not active) | – |
| O=C1N=C(Nc2ccc(O)cc2)S/C1=C/c1ccco1 | – | – | – | – | IC50 (Large T antigen): 3.47 µM (active) |
| COc1ccc(-n2c(=O)c3c4c(sc3n3c(S)nnc23)COC(C(C)C)C4)cc1 (centres undefined) | – | – | – | – | IC50 (Large T antigen): 16.7 µM (active) |
| CCOc1cc(/C=N/NC(=O)Cn2nc([N+](=O)[O-])cc2C)cc(Br)c1OCc1ccccc1C | > 260 µM (inactive) | – | – | – | EC50 [6]: > 60 µM (not active); EC50 [7]: 2.32 µM (active); CC50 [10]: 8.17 µM (active) |
| Cc1c(/C=N/NC(=O)c2ccc(Br)o2)cnn1C | > 260 µM (inactive) | – | – | – | – |
| C[C@H]1CCCCO[C@H](CN(C)Cc2ccc(Cl)c(Cl)c2)[C@@H](C)CN([C@@H](C)CO)C(=O)c2cc(NC(=O)Nc3ccc(F)cc3)ccc2O1 | – | – | – | – | AC50 (Paired box protein Pax-8): 25.9 µM (active) |
| C[C@@H]1CCCCO[C@H](CN(C)C)[C@H](C)CN([C@H](C)CO)C(=O)c2cc(NC(=O)Nc3cccc4ccccc34)ccc2O1 | – | – | – | – | AC50 (Paired box protein Pax-8): 33.5 µM (active) |
| COc1ccc(S(=O)(=O)Nc2ccc3c(c2)CC(=O)N([C@H](C)CO)C[C@H](C)[C@@H](CN(C)Cc2ccc(-c4ccccc4)cc2)O3)cc1 | – | – | – | – | AC50 (Paired box protein Pax-8): 9.41 µM (active) |
| COC(=O)C1C/C(=N\NS(=O)(=O)c2ccc(C)cc2)c2sccc2C1 (centres undefined) | – | > 120 µM (not active) | > 120 µM (not active) | > 120 µM (not active) | – |
